From US11407792B2, “Regulating electron flow using fragmented proteins” (WILLIAM MARSH RICE UNIVERSITY, priority 2017, dated 2022)

Experiments:
sFd-35-ER = assay: Complementation of E. coli EW11 growth by sFd-35-ER with 4-HT and other estrogen receptor modulators; type: cell-based, Escherichia coli
Procedure: Growth assay. For all growth experiments, E. coli EW11 were freshly transformed with two plasmids, one encoding the e-donor and acceptor pair (FNR and SIR) and the other encoding either a native Fd, a C42A mutant of Ml Fd that is unable to coordinate a 2Fe-2S cluster, or an engineered Fd. Starter cultures were inoculated using single colonies obtained by selecting for colonies containing both plasmids on LB-agar plates. These starter cultures were grown in deep-well 96-well plates for 18 hours at 37° C. in 1 mL of a non-selective modified M9 medium (M9c), which contained sodium phosphate, dibasic (6.8 g/L), sodium phosphate, monobasic (3 g/L), sodium chloride (0.5 g/L), ammonium chloride (1 g/L), calcium chloride (0.1 mM), magnesium sulfate (10 mM), ferric citrate (24 mg/L), p-aminobenzoic acid (2 mg/L), inositol (20 mg/L), adenine (5 mg/L), uracil (20 mg/L), tryptophan (40 mg/L), tyrosine (1.2 mg/L), and the remaining 18 amino acids (80 mg/L each). For auxotroph complementation analysis, starter cultures that had been grown to stationary phase in M9c were diluted ˜1:100 using a 96-well replicator pin into 100 μL of a selective modified M9 medium (M9sa), which is identical to M9c but lacks cysteine and methionine. […] Optical density (OD) measurements were taken every 10 minutes. To select for the Fd and e-donor/acceptor plasmids, all growth steps included chloramphenicol and streptomycin at 34 μg/mL and 100 μg/mL, respectively.
To test whether this domain-insertion strategy can be used to diversify the chemical regulation of sFd-35, the ligand-binding domain (LBD) of the human estrogen receptor (ER) was inserted after residue 35 to create sFd-35-ER (FIG. 26E).
(§1) The activity of sFd-35-ER was evaluated by expressing this protein using an aTc-inducible promoter (FIG. 31B). […] This protein was also expressed as a fusion to RFP (sFd-35-ER-RFP) to evaluate how 4-HT affects protein expression.
To evaluate how these different modulators affect sFd-35-ER ET, sFd-35-ER growth complementation was evaluated in the presence of agonists, antagonists, and an endocrine disruptor (FIG. 32D).

sFd-35-ER-RFP = conditions: 4-HT in ethanol compared to ethanol alone
Procedure: Fluorescence spectroscopy.
as §1

[1] = tested on: lysates derived from E. coli EW11 expressing FNR and SIR; assay: Sulfide production assay in cell lysates (sulfidefluor-7 fluorescence); type: biochemical, Escherichia coli
Procedure: Cell lysates. Electrocompetent E. coli EW11 were transformed with the plasmid (pSAC01) that constitutively expresses Zea mays FNR and SIR. Cells were grown to stationary phase at 37° C. and 250 rpm in 2×YTPG medium (16 g/L tryptone, 10 g/L yeast extract, 5 g/L NaCl, 3 g/L KH2PO4, 7 g/L K2HPO4, and 18 g/L glucose) containing 100 μg/mL streptomycin. Cells from overnight cultures were diluted 1:100 in fresh 2×YTPG medium containing streptomycin, grown for 2 hours at 37° C. while shaking at 250 rpm until mid-log phase, and then shifted to 30° C. and grown for an additional 4 hours. […] Protein content in lysates was quantified using Bio-Rad Protein Assay Dye Reagent Concentrate (Bio-Rad), using bovine serum albumin (NEB) as a standard.
Sulfide production assay. […] Following NADPH or protein addition, reactions were arrayed in a Corning 96 well plate at room temperature (Cost ar #3603), transferred to an Infinite m1000 Pro plate reader (Tecan), and heated to 37° C. and shaken at 250 rpm with fluorescence readings (λex=495 nm, λem=520 nm) every 15 seconds. […]
SIR activity was monitored in desalted cell lysates using sulfidefluor-7 (Lin et al., 2013), a fluorescent probe for hydrogen sulfide. […]

[2] = tested on: split Fd fused to estrogen receptor
E. coli EW11 = E. coli EW11 growth complementation by native, split or engineered Fds; type: cell-based, Escherichia coli; conditions: after 24 hours; Fd expressed from an aTc-inducible promoter, FNR and SIR constitutive
Procedure: Growth assay. […] Optical density (OD) measurements were taken every 10 minutes.
To rapidly assay ET mediated by engineered Fds, an Escherichia coli sulfide auxotroph (EW11; Barstow et al., 2011), which cannot grow in minimal medium containing sulfate as a sulfur source unless it expresses a synthetic ET chain consisting of a Fd-NADP+ reductase (FNR) electron donor, a Fd electron carrier, and a Fd-dependent sulfite reductase (SIR) electron acceptor, was used (FIG. 25A). Endogenous oxidoreductases were systematically removed from the genome of this strain to insulate Fd-dependent redox pathways from native redox reactions (Barstow et al., 2011). To evaluate Fd ET, Zea mays FNR and SIR were constitutively expressed and a TetR-repressible promoter was used to control the expression of plant-type 2Fe-2S Fds. […]
With this expression strategy, the inventors can quickly assess which split Fds require two fragments to function in complementation assays by assessing growth in the presence and absence of both inducers because growth depended upon the level of anhydrotetracycline (aTc) (FIG. 25B), and thus, the amount of Fd available to mediate ET. […] For these experiments, they assessed split Fd function in the presence of a constant high concentration of aTc, and varying concentrations of IPTG, which selectively drive the distinct promoters. […]

[3] = Midpoint potentials by protein film (square wave) voltammetry; type: physicochemical; conditions: relative to standard hydrogen electrode, pH 7.0, 23.5° C.
Procedure: Midpoint potentials. Electrochemical experiments were carried out anaerobically in a MBraun Labmaster glovebox using a PGSTAT12 potentiostat. A three-electrode configuration was used in a water-jacketed glass cell. A platinum wire was used as the counter electrode and a standard calomel electrode was used as the reference electrode. Reported potentials are relative to the standard hydrogen electrode. Baseline measurements were collected using an edge-plane graphite (EPG) electrode that was modified with a 100 mM neomycin trisulfate solution, rinsed, and placed into a glass cell containing a 23.5° C. mixed buffer solution (5 mM acetate/MES/MOPS/TAPS/CHES/CAPS) pH 7.0, with 100 mM NaCl. A 5 μL aliquot of 720 μM Ml-Fd or 5 mM sFd-35-ER was applied directly to the electrode surface with or without 1 μL of 50 mM 4-HT, the protein was allowed to […] for approximately one minute at room temperature before being placed into the buffer cell solution. Square wave voltammograms were collected at 23.5° C. with a frequency of 10 Hz and electrochemical signals were analyzed using QSoas.
To investigate if domain insertion affects the reduction potential of Ml-Fd, Ml-Fd and sFd-35-ER were characterized using protein film voltammetry. In the absence of 4-HT, the midpoint potentials of both Ml-Fd and sFd-35-ER (FIG. 27C) were −336 and −320 mV, respectively. […]

[4] = Fish et al., 2005; cited from earlier work

sFd-35-ER, sequence (P03372 311-547): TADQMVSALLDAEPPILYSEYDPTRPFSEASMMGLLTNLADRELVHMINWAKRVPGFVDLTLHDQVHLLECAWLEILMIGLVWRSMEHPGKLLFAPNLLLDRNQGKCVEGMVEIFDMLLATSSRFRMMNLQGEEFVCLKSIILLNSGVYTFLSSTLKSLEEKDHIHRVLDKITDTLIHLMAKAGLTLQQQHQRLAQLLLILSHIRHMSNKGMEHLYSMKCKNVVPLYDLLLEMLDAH
split Fd fused to estrogen receptor, sequence (P03372 311-547 limits assumed): as the sequence (P03372 311-547) above
sFd-35-ER-RFP, sequence (P03372 311-547 limits assumed): as the sequence (P03372 311-547) above

Row | Substance | 4-HT concentration at which growth of sFd-35-ER is enhanced significantly above the C42A mutant (sFd-35-ER) [µM] | Activation of sFd-35-ER ET (growth complementation) (sFd-35-ER) | Effect of estrogen receptor modulators on complementation of E. coli EW11 by sFd-35-ER, compared to DMSO alone (sFd-35-ER) | EC50 (sFd-35-ER; read-out: k1/2 4-HT, complementation of E. coli EW11 by sFd-35-ER) [nM] | Effect of 4-HT on relative fluorescence of cells expressing sFd-35-ER-RFP (sFd-35-ER-RFP) | sulfide production rate on adding 4-HT alone ([1]; no Fd added) | effect of 4-HT addition alone on rate [2] | time after chemical addition at which the higher rate of sulfide production is detectable ([2]; 4-HT added at t=0) [min] | k1/2, growth complementation as a function of aTc (E. coli EW11) [ng/mL aTc] | midpoint potential ([3]; absence of 4-HT) [mV] | midpoint potential ([3]; presence of 4-HT) [mV] | rate of SF7 fluorescence with increasing concentrations of Ml-Fd ([1]; y=0.7×+12.252, r^2=0.983) | temperature of optimal ET [4] [°C]
1 | 4-hydroxytamoxifen [4-HT] | ≥ 6.25 | activated | significantly enhance growth | 2110 | no significant increase in fluorescence | not enhanced | does not affect rate | ≤ 1.5 |  |  |  |  | 
2 | Ml-Fd: Thermostable plant-type 2Fe-2S ferredoxin of Mastigocladus laminosus, UniProt P00248, SEQ ID NO: 11 |  |  |  |  |  |  |  |  | 1.8 | −336 | −330 | linearly increasing rate | 65
